From ChEMBL document CHEMBL1777706, “Discovery of selective and orally available spiro-3-piperidyl ATP-competitive MK2 inhibitors” (Bioorg Med Chem Lett, 2011) come the findings set out here.

Active and inactive are the calls of the source. The calls are words filed in the database; no cut-off is given here. Where only a bound is given, the exact number is not on record here.

One may read the Papp as a coefficient for how fast a substance crosses the barrier. For orientation: half-life means how long it takes for the measured level to halve. A low value points to rapid decline. Usually inhibition stands for the percentage by which the read-out fell short of the control. Broadly, the AUC is the area under the concentration-time curve, a measure of exposure. Read a low AUC as low exposure. The pKa is the pH at which an ionisable group is half protonated. Lower therefore signals a stronger acid or weaker base. As a reminder, the EC50 is the concentration giving half of the maximal effect. In general, bioavailability refers to dose-corrected exposure relative to a reference, in per cent.

Data set [1] in a line: in vitro. The note with it: human, Caco-2.
Description: Permeability across human Caco2 cells
Data set [2] is described as follows: Half life in human liver microsomes. It counts as ADME, Microsome.
The target in data set [3] is Mitogen-activated protein kinase 3 (Homo sapiens) (UniProt P27361). In words: Inhibition of ERK1 at 1 uM.
The nature of data set [4]: Inhibition of p38.
Data set [5] in a line: AUC in po dosed rat. It counts as ADME, organism-based. The note with it: plasma.
Data set [6] can be described thus: Dissociation constant, pKa of the compound at pH 7.4. It counts as physicochemical.
Data set [7] concerns the target Serine/threonine-protein kinase pim-1 (Homo sapiens) (UniProt P11309). In words: Inhibition of PIM1 at 1 uM.
In data set [8] the target is Serine/threonine-protein kinase Chk2 (Homo sapiens) (UniProt O96017). In words: Inhibition of CHK2 at 1 uM.
Data set [9] concerns THP-1. In words: Antiinflammatory activity in human THP1 cells assessed as inhibition of LPS-induced TNFalpha production pretreated 30 mins before LPS challenge measured after 4 hrs. It counts as functional, cell-based.
Data set [10] concerns PBMC. In words: Antiinflammatory activity in human PBMC cells assessed as inhibition of LPS-induced TNFalpha production pretreated 30 mins before LPS challenge measured after 4 hrs by ELISA. It counts as functional, cell-based. For orientation: An ELISA detects its analyte on a solid surface through an enzyme-linked reagent.
Data set [11] addresses Serine/threonine-protein kinase pim-3 (Homo sapiens) (UniProt Q86V86). In words: Inhibition of PIM3 at 1 uM.
The target of data set [12] is T1, MAP kinase-activated protein kinase 2 (Homo sapiens, UniProt P49137). In words: Inhibition of MK2 in LPS-stimulated human THP1 cells assessed as inhibition of Hsp27 phosphorylation pretreated 60 mins before LPS challenge measured after 10 mins. It counts as cell-based, THP-1.
For data set [13], the target named is Mitogen-activated protein kinase 1 (Homo sapiens) (UniProt P28482). In words: Inhibition of ERK2 at 1 uM.
Data set [14] in a line: Half life in rat liver microsomes. It counts as ADME, Microsome. For orientation: Liver microsomes are vesicles of endoplasmic reticulum, rich in cytochrome P450 enzymes.
Data set [15] has as its target T1, MAP kinase-activated protein kinase 2. In words: Inhibition of MK2 pretreated for 30 mins before fluorescein labeled substrate peptide addition measured after 2 hrs by IMAP assay.
The target in data set [16] is T2, Serine/threonine-protein kinase 17A (Homo sapiens) (UniProt Q9UEE5).
T2 sequence (whole entry): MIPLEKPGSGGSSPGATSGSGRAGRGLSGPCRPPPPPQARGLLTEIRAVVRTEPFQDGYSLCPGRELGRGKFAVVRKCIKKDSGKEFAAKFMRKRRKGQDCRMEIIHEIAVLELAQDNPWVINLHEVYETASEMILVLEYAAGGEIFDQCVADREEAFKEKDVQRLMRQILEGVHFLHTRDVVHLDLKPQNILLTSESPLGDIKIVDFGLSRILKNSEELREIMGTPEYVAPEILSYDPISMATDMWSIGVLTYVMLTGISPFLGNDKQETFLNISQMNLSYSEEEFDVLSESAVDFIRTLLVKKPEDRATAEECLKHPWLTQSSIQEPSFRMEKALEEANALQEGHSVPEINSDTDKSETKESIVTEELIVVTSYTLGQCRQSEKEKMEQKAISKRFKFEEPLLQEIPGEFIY
In words: Inhibition of DRAK1 at 1 uM.

The test system of data set [17] is THP-1. In words: Cytotoxicity against human THP1 cells by Alamar blue assay. It counts as cell-based. Background: The colour change of resazurin is a common sign of viable cells or microbes.
Data set [18] is described as follows: Oral bioavailability in mouse. It counts as ADME, organism-based. The note with it: in vivo.
In data set [19] the target is T3, MAP kinase-activated protein kinase 5 (Homo sapiens) (UniProt Q8IW41).
T3 sequence (whole entry): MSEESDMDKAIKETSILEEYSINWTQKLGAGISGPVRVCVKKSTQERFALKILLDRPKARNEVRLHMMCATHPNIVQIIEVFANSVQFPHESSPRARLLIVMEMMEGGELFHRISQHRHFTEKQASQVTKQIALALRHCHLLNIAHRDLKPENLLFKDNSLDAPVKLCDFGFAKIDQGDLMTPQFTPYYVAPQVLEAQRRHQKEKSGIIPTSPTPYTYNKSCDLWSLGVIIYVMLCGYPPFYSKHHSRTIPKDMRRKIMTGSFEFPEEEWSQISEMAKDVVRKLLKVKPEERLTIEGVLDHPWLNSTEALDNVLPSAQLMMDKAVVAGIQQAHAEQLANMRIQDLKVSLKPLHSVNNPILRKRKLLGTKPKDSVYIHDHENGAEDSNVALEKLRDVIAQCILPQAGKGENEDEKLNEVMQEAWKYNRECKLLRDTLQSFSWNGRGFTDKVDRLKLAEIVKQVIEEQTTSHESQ
In words: Inhibition of MK5 at 1 uM.

The target of data set [20] is MAP kinase-activated protein kinase 3 (Homo sapiens) (UniProt Q16644). In words: Inhibition of MK3 at 1 uM.
Chain of MAP kinase-activated protein kinase 3 (Homo sapiens) (Q16644 whole entry, looked up): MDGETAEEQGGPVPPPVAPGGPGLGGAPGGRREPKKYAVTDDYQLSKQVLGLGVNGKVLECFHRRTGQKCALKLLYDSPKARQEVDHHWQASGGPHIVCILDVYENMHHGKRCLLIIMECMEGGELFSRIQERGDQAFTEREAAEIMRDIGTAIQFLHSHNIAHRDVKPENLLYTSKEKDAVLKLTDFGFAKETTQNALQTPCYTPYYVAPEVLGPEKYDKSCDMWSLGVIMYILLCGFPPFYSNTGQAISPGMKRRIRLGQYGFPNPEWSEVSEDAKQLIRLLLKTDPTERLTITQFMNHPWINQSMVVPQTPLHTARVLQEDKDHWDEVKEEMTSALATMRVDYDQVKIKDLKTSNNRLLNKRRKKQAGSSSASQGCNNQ

Chain of Serine/threonine-protein kinase pim-1 (Homo sapiens) (P11309 whole entry, looked up): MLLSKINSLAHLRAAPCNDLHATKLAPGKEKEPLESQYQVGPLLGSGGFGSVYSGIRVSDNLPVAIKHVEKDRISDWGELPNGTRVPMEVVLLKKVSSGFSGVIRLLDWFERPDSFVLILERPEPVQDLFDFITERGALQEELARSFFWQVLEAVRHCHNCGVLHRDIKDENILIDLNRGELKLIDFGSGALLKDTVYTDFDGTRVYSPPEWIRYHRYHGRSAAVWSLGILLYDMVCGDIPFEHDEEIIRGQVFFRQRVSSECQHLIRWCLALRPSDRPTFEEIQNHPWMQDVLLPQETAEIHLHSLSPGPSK
T1 sequence (P49137 whole entry): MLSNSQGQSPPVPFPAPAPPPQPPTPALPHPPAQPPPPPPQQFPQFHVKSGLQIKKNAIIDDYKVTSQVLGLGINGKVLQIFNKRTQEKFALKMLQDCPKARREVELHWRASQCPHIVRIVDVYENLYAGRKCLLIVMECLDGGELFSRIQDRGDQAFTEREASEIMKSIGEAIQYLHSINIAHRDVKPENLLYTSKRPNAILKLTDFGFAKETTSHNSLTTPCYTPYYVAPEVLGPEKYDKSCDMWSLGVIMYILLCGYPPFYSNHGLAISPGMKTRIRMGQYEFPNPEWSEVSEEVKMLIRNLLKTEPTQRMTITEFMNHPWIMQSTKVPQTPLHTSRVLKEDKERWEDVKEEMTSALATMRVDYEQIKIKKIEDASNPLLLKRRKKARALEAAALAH
Chain of Mitogen-activated protein kinase 1 (Homo sapiens) (P28482 whole entry, looked up): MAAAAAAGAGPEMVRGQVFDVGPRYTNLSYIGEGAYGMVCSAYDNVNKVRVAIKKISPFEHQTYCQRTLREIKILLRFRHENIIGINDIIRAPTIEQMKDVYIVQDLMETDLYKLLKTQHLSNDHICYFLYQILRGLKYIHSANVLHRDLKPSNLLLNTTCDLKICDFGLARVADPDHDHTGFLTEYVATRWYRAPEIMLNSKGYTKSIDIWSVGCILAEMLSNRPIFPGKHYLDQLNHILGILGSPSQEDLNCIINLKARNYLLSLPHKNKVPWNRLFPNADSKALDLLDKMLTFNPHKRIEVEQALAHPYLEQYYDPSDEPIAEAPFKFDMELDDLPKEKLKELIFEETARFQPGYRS
Chain of Serine/threonine-protein kinase Chk2 (Homo sapiens) (O96017 whole entry): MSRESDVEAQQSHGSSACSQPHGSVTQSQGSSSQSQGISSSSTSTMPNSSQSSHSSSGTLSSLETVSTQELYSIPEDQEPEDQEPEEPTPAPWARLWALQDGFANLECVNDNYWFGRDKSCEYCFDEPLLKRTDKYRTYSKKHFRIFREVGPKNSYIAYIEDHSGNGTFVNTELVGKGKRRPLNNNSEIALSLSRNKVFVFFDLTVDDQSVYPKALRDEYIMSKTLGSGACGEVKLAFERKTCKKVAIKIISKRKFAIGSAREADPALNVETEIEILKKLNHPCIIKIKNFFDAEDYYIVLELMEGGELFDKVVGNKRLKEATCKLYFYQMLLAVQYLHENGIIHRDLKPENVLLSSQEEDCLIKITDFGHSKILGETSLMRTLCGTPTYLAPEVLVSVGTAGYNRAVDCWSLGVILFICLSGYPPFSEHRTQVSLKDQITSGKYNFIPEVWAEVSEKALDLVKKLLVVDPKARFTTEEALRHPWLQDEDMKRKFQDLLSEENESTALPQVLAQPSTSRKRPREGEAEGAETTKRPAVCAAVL
Chain of Mitogen-activated protein kinase 3 (Homo sapiens) (P27361 whole entry): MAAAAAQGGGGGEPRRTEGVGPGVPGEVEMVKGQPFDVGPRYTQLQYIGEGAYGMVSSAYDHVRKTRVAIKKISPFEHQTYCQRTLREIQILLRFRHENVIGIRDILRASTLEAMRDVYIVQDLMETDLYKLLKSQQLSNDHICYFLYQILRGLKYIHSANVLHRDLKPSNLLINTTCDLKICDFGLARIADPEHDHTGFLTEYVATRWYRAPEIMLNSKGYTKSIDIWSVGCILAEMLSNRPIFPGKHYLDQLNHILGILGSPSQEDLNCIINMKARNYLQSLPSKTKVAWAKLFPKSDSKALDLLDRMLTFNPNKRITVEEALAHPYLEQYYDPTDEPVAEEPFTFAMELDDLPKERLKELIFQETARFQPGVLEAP

The compound `COCCCOc1ccc(-c2nccc(-c3cc4c([nH]3)C3(CCCNC3)CNC4=O)n2)cn1` (racemic) came in with a Papp in data set [1] of 4.2 ×10⁻⁶ cm/s. Moreover, the half-life in [2] and in [14] was above 1 h each time. Moreover, the inhibition in data set [3], in data set [7], in data set [8], in data set [11], in data set [13] and in data set [16] was above 80% in each case. The inhibition result in [4] is “inactive”. In addition, in data set [5], the exposure (AUC) is 0.882 µM·h. The compound further came in with a pKa in [6] of 8.2. In addition, the half-maximal effective concentration (EC50) in data set [9] came out at 1500 nM; in [10], 920 nM; in [12], 1400 nM; in data set [15], 21 nM.
On to `O=C1NCC2(CCCNC2)c2[nH]c(-c3ccnc(-c4cc5ccccc5o4)n3)cc21` (racemic), for which the Papp in data set [1] came out at 1.5 ×10⁻⁶ cm/s. Besides, the half-life in data set [2] and in data set [14] was above 1 h throughout. The inhibition in [3], in data set [7], in data set [8], in [11], in data set [13] and in data set [16] was above 80% throughout. The inhibition result in data set [4] is “inactive”. The same compound gave an exposure (AUC) in data set [5] of 0.472 µM·h. In data set [6], this compound showed a pKa of 8.4. Further, the Activity result in data set [17] is “Non-toxic”. The EC50 in [15] is 11 nM.
In turn, `O=C1NCC2(CCNCC2)c2[nH]c(-c3ccnc(-c4ccc5c(c4)OCO5)n3)cc21` came in with an apparent permeability coefficient (Papp) in [1] of 0.1 ×10⁻⁶ cm/s. For the same compound, the half-life in [2] and in data set [14] was above 1 h in each case. Further, the inhibition in [3], in data set [7], in data set [8], in [11], in [13] and in data set [16] was above 80% each time. Further, in [18], the bioavailability came to 0.7%. Besides, the inhibition entry in data set [4] is “inactive”. The compound further displayed an AUC in [5] below 0.006 µM·h. The same compound returned a pKa in data set [6] of 9.3. Besides, the results for the EC50 in data set [9], in data set [12] and in data set [15] were 910 nM, 620 nM and 4.3 nM, respectively.
As to `O=C1NCC2(CCNCC2)c2[nH]c(-c3ccnc(-c4cc5ccccc5o4)n3)cc21`, the half-life in data set [2] and in data set [14] was above 1 h throughout. The inhibition in data set [3], in data set [7], in data set [8], in [11], in [13] and in data set [16] was above 80% throughout. Moreover, the inhibition entry in data set [4] is “inactive”. The AUC in data set [5] was below 0.006 µM·h. The compound further showed a pKa in [6] of 9.1. Besides, the EC50 in data set [9] was found to be 280 nM; in [12], 1200 nM; in data set [15] it was 5.9 nM. In data set [17], the Activity is above 10 µM.
Regarding `O=C1NC[C@@]2(CCCNC2)c2[nH]c(-c3ccnc(-c4ccc5c(c4)OCO5)n3)cc21`, the inhibition in data set [3], in [7], in data set [8], in data set [11], in data set [13] and in data set [16] was above 80% each time. The inhibition entry in data set [4] was “inactive”. The EC50 was found to be 850 nM in [9], 450 nM in data set [10], 500 nM in [12] and 7.4 nM in data set [15].
In the case of `COc1cncc(-c2nccc(-c3cc4c([nH]3)[C@@]3(CCCNC3)CNC4=O)n2)c1`, the inhibition in [3], in data set [7], in data set [8], in [11], in data set [13] and in data set [16] was above 80% each time. Also, the inhibition entry in data set [4] is “inactive”. Moreover, the concentration for a half-maximal effect (EC50) in data set [9] is 2200 nM; in data set [10], above 10000 nM; in [12], 2300 nM; in [15] it was 126 nM.
As for `O=C1NC[C@@]2(CCCNC2)c2[nH]c(-c3ccnc(-c4cccnc4)n3)cc21`, the inhibition in [3], in data set [7], in [8], in data set [11], in data set [13] and in [16] was above 80% in each case. In addition, the inhibition result in data set [4] is “inactive”. In addition, the EC50 in data set [9] is 1600 nM; in [10], 930 nM; in data set [12], 1200 nM; in data set [15] it was 6.5 nM.
`COc1cncc(-c2nccc(-c3cc4c([nH]3)C3(CCCNC3)CNC4=O)n2)c1` (racemic): the half-life in data set [2] was 0.945 h; in data set [14], 0.702 h. Moreover, the inhibition in [3] was above 80%; in data set [7], above 80%; in [8], above 80%; in data set [11], above 80%; in data set [13], above 80%; in data set [19], above 95%. The inhibition in [16] is above 80%; in [20], above 95%. For the same compound, in data set [4], the inhibition entry was “inactive”. Moreover, the pKa in data set [6] amounted to 8.4. The EC50 in [9] was 1400 nM; in data set [10], 1000 nM; in [12] it was 900 nM; in [15] it was 24 nM.
The compound `CN1CCC2(CC1)CNC(=O)c1cc(-c3ccnc(-c4cc5ccccc5o4)n3)[nH]c12` yielded an apparent permeability coefficient (Papp) in data set [1] of 1 ×10⁻⁶ cm/s. Also, the half-life in data set [2] and in [14] was above 1 h in each case. Further, the inhibition in data set [3], in [7], in [8], in [11], in [13] and in data set [16] was above 80% in each case. The inhibition result in data set [4] was “inactive”. This compound registered an AUC in data set [5] of 0.078 µM·h. The pKa in data set [6] was found to be 8.1. In addition, the concentration giving a half-maximal response (EC50) in [9] stood at 470 nM; in data set [12] it was 1600 nM; in data set [15], 13 nM. The same compound registered an Activity in data set [17] above 10 µM.
Consider `COCCCOc1ccc(-c2nccc(-c3cc4c([nH]3)[C@@]3(CCCNC3)CNC4=O)n2)cn1`, for which the inhibition in [3], in [7], in data set [8], in [11], in data set [13] and in data set [16] was above 80% throughout. In data set [4], the inhibition result was “inactive”. For the same compound, the EC50 is above 10000 nM in data set [9], 6900 nM in [10], above 10000 nM in [12] and 129 nM in [15].
As to `CCN1CCC2(CC1)CNC(=O)c1cc(-c3ccnc(-c4cc5ccccc5o4)n3)[nH]c12`, the Papp in [1] was found to be 0.8 ×10⁻⁶ cm/s. Further, the half-life in data set [2] was above 1 h; in data set [14] it was above 0.993 h. Moreover, the inhibition in data set [3], in data set [7], in [8], in data set [11], in data set [13] and in data set [16] was above 80% each time. The inhibition result in data set [4] was “inactive”. Further, the AUC in data set [5] is 0.154 µM·h. This compound also returned a pKa in [6] of 8.6. Also, the values for the 50% effective concentration (EC50) in [9], in data set [12] and in data set [15] were 1600 nM, above 10000 nM and 59 nM, respectively. Also, in data set [17], the Activity is above 10 µM.
Take `O=C1NC[C@]2(CCCNC2)c2[nH]c(-c3ccnc(-c4cccnc4)n3)cc21`: the inhibition in [3], in data set [7], in data set [8], in [11], in data set [13] and in data set [16] was above 80% in each case. For the same compound, the inhibition result in [4] is “inactive”. Also, the concentration for a half-maximal effect (EC50) in [9] came to 8700 nM; in data set [10], 4300 nM; in [12], 5800 nM; in data set [15], 288 nM.
